Measured values from patent US20260083704A1, “LXR MODULATORS WITH BICYCLIC CORE MOIETY FOR TREATING DYSLIPIDEMIAS” (OrsoBio, Inc., priority 2022, published 2026).
Like-named read-outs stand apart in the source and are kept apart here. Marks after values point to notes of the source that are not given here.

How the values were obtained:
[1] = Phase 1 study, SAD cohorts: plasma pharmacokinetics; format: in vivo, human; conditions: for AUC(0-inf) / Cmax / Tmax / half-life: both sexes, human, oral, plasma
Method: (§1) A double-blind, placebo-controlled, single- and multiple-ascending dose FIH Phase 1 study to evaluate the safety, tolerability, PK, and PD of Compound 21/3 in healthy adult subjects was performed. A total of up to 150 subjects were enrolled, including 100 subjects in Parts A and B, and up to 50 subjects in adaptive cohorts in Part C. Within each cohort, 10 subjects were randomized, including 8 subjects randomized to Compound 21/3 and 2 subjects to PTM (placebo-to-match). In single-dose cohorts in Parts A and in any Part C cohort evaluating a higher total daily dose than previously evaluated, safety and tolerability data collected through Day 2 from two sentinel subjects, one randomized to Compound 21/3 and one to PTM, were evaluated prior to dosing of the remaining subjects in each cohort.
Intensive PK sampling over 72 h postdose on Day 1 (SAD and MAD) and Day 14 (MAD) was performed. Compound 21/3 plasma concentrations were determined using validated liquid chromatography-tandem mass spectrometry assay. PK parameters were estimated via noncompartmental methods using Pheonix® WinNonlin® 6.2.1 and 8.3.4 (Certara, LP, Princeton, NJ).
Part A evaluated the safety, tolerability, PK, and PD of single-ascending doses of oral Compound 21/3 or placebo under fed conditions. Part A proceeded in up to 5 dose-escalation cohorts and governed by a review of safety, tolerability, and any available and relevant PK and/or PD data, and study-specific stopping criteria.

[2] = test system: healthy subjects; test: Phase 1 study, MAD cohorts: safety and tolerability; format: in vivo, human; conditions: for Abdominal pain / Any TEAE / Back pain / Diarrhea / Grade ≥2 TEAE / Headache / Pruritis / Serious TEAE / TEAE leading to study drug discontuation / Treatment-related TEAE / subjects with mild (Grade 1), transient increase in serum ALT: MAD; for Abdominal pain / Any TEAE / Back pain / Diarrhea / Grade ≥2 TEAE / Headache / Pruritis / Serious TEAE / TEAE leading to study drug discontuation / Treatment-related TEAE: n = 8
Method: as §1
An approximately even distribution of healthy male and non-pregnant, non-lactating female subjects 18 to 55 years of age, inclusive, were to be enrolled in the study. There were no significant medical conditions by history, physical examination, or laboratory evaluation. Subjects were not allowed to participate in more than one cohort of the study. Within each MAD cohort, attempts were made to enrich for >3 subjects with elevated TG and/or LDL-C. Following the completion of Screening and admission assessments, eligible subjects were to be enrolled on Day −1. Safety and tolerability assessments, including adverse event (AE) monitoring, laboratory tests, physical examinations, and ECG evaluations were performed throughout the study.
The severity of AEs was graded using the Common Terminology Criteria for Adverse Events version 5.0 (CTCAE v5.0).

[3] = test system: steatotic human liver organoids (sHLO); test: Steatotic human liver organoid (sHLO) model; format: cell-based; conditions: 3 days
Method: Data in FIG. 2A are obtained from (Ouchi, Togo et al. 2019). Data are shown as mean±SD. n=4 wells per treatment.
Activity of Compound 21/3 was also evaluated in an induced pluripotent stem cell (iPSC)-derived human liver organoid (HLO) model established from human donors with different genetic backgrounds, including those with known genetic risk variants for NASH (Ouchi, Togo et al. 2019). The HLOs were exposed to high concentrations of lipid to induce a reproducible steatotic NASH phenotype (sHLO) with increased expression of DNL genes, including NR1H3, the gene that encodes LXRα (FIG. 2A) (Ouchi, Togo et al. 2019, Minniti, Pedrelli et al. 2020). […] Mutations in GCKR have been associated with increased circulating lipids, hepatic DNL, and diseases including diabetes and NASH (Fernandes Silva, Vangipurapu et al. 2019).

Work on `N#Cc1cccc(C#N)c1-c1c(-c2cccc(-c3ccc(C(=O)NCC(=O)O)cc3Cl)c2)n(S(=O)(=O)c2ccc(C(F)F)cc2)c2ccc(F)cc12` [Compound 21/3] yielded an AUC(0-inf) ([1]; Day 1, 0.5 mg, mean) of 1.2 ng·h/mL, a Cmax ([1]; Day 1, 0.5 mg, mean, read-out: Cmax) of 0.37 ng/mL and a Tmax ([1]; Day 1, 0.5 mg, median) of 3.5 h. For the same compound, the half-life ([1]; Day 1, 0.5 mg, median) was 2.1 h, the AUC(0-inf) ([1]; Day 1, 2 mg, mean) was 8.5 ng·h/mL and the Cmax ([1]; Day 1, 2 mg, mean, read-out: Cmax) was 0.54 ng/mL. It also gave a Tmax ([1]; Day 1, 2 mg, median) of 3.75 h, a half-life ([1]; Day 1, 2 mg, median) of 4.96 h and an AUC(0-inf) ([1]; Day 1, 6 mg, mean) of 10 ng·h/mL. For the same compound, the Cmax ([1]; Day 1, 6 mg, mean, read-out: Cmax) was 3.33 ng/mL, the Tmax ([1]; Day 1, 6 mg, median) was 4 h and the half-life ([1]; Day 1, 6 mg, median) was 1.37 h. It also gave an AUC(0-inf) ([1]; Day 1, 12 mg, mean) of 17.1 ng·h/mL, a Cmax ([1]; Day 1, 12 mg, mean, read-out: Cmax) of 4.69 ng/mL and a Tmax ([1]; Day 1, 12 mg, median) of 3 h. The half-life ([1]; Day 1, 12 mg, median) was 2.02 h, the AUC(0-inf) ([1]; Day 1, 20 mg, mean) was 20.6 ng·h/mL and the Cmax ([1]; Day 1, 20 mg, mean, read-out: Cmax) was 6.79 ng/mL. The Tmax ([1]; Day 1, 20 mg, median) was 2.5 h, the half-life ([1]; Day 1, 20 mg, median) was 2.36 h and the half-life ([1]; healthy subjects) was 2 to 3 h. For the same compound, the Tmax ([1]; healthy subjects, postdose) was 3 to 4 h, the Cmax ([1]; healthy subjects, read-out: maximal plasma concentrations (Cmax)) was under 7 ng/mL and the “dose proportionality of plasma exposure” value ([1]; healthy subjects) was “less than dose-proportional increases”. For the same compound, the Abdominal pain ([2]; 0.5 mg, fed) was 1 (13), the “Any TEAE” value ([2]; 0.5 mg, fed) was 7 (88) and the Back pain ([2]; 0.5 mg, fed) was 0 (0). The Diarrhea ([2]; 0.5 mg, fed) was 2 (25), the “Grade ≥2 TEAE” value ([2]; 0.5 mg, fed) was 0 (0) and the Headache ([2]; 0.5 mg, fed) was 1 (13). For the same compound, the Pruritis ([2]; 0.5 mg, fed) was 4 (50), the “Serious TEAE” value ([2]; 0.5 mg, fed) was 0 (0) and the “TEAE leading to study drug discontuation” value ([2]; 0.5 mg, fed) was 0 (0). The “Treatment-related TEAE” value ([2]; 0.5 mg, fed) was 0 (0), the Abdominal pain ([2]; 2 mg, fed) was 0 (0) and the “Any TEAE” value ([2]; 2 mg, fed) was 3 (38). For the same compound, the Back pain ([2]; 2 mg, fed) was 0 (0), the Diarrhea ([2]; 2 mg, fed) was 0 (0) and the Headache ([2]; 2 mg, fed) was 0 (0). The Pruritis ([2]; 2 mg, fed) was 0 (0), the “Serious TEAE” value ([2]; 2 mg, fed) was 0 (0) and the “TEAE leading to study drug discontuation” value ([2]; 2 mg, fed) was 0 (0). The “Treatment-related TEAE” value ([2]; 2 mg, fed) was 0 (0), the “Grade ≥2 TEAE” value ([2]; 2 mg, fed, Grade 2 thrombophlebitis considered unrelated to study treatment) was 1 (13)* and the Abdominal pain ([2]; 6 mg (fasted)) was 1 (13). For the same compound, the “Any TEAE” value ([2]; 6 mg (fasted)) was 1 (13), the Back pain ([2]; 6 mg (fasted)) was 0 (0) and the Diarrhea ([2]; 6 mg (fasted)) was 0 (0). For the same compound, the “Grade ≥2 TEAE” value ([2]; 6 mg (fasted)) was 0 (0), the Headache ([2]; 6 mg (fasted)) was 0 (0) and the Pruritis ([2]; 6 mg (fasted)) was 0 (0). The “Serious TEAE” value ([2]; 6 mg (fasted)) was 0 (0), the “TEAE leading to study drug discontuation” value ([2]; 6 mg (fasted)) was 0 (0) and the “Treatment-related TEAE” value ([2]; 6 mg (fasted)) was 0 (0). The Abdominal pain ([2]; 6 mg, fed) was 1 (13), the “Any TEAE” value ([2]; 6 mg, fed) was 5 (63) and the Back pain ([2]; 6 mg, fed) was 2 (25). The Diarrhea ([2]; 6 mg, fed) was 1 (13), the “Grade ≥2 TEAE” value ([2]; 6 mg, fed) was 0 (0) and the Headache ([2]; 6 mg, fed) was 1 (13). The Pruritis ([2]; 6 mg, fed) was 0 (0), the “Serious TEAE” value ([2]; 6 mg, fed) was 0 (0) and the “TEAE leading to study drug discontuation” value ([2]; 6 mg, fed) was 0 (0). The “Treatment-related TEAE” value ([2]; 6 mg, fed) was 1 (13), the Abdominal pain ([2]; 12 mg, fed) was 1 (13) and the “Any TEAE” value ([2]; 12 mg, fed) was 3 (38). For the same compound, the Back pain ([2]; 12 mg, fed) was 0 (0), the Diarrhea ([2]; 12 mg, fed) was 2 (25) and the “Grade ≥2 TEAE” value ([2]; 12 mg, fed) was 0 (0). The Headache ([2]; 12 mg, fed) was 2 (25), the Pruritis ([2]; 12 mg, fed) was 0 (0) and the “Serious TEAE” value ([2]; 12 mg, fed) was 0 (0). The “TEAE leading to study drug discontuation” value ([2]; 12 mg, fed) was 0 (0), the “Treatment-related TEAE” value ([2]; 12 mg, fed) was 2 (25) and the tolerability ([2]; healthy subjects, 0.5, 2, 6, and 12 mg for 14 days) was “well tolerated”. For the same compound, the “subjects with treatment-related TEAEs (all mild, gastrointestinal)” value ([2]; healthy subjects, MAD cohorts) was 3 subjects, the “proportion of subjects with adverse events (AEs)” value ([2]; healthy subjects, MAD cohorts, range over dose groups) was 13-88% and the “subjects with mild (Grade 1), transient increase in serum ALT” value ([2]; healthy subjects, 6 mg group, fed) was “one”. For the same compound, the “subjects with mild (Grade 1), transient increase in serum ALT” value ([2]; healthy subjects, 12 mg group, fed) was 4 subjects, the safety and tolerability ([2]; healthy subjects, single and multiple daily doses up to 20 mg/d for 14 days) was “safe and well tolerated” and the intracellular lipid content ([3]; patient-derived sHLOs) was “dose-dependently reduced”. For the same compound, the “expression of DNL-associated genes” value ([3]; sHLOs from GCKR wild-type (CC) or mutant (TT) carriers) was “suppressed”.
